Data reported in ChEMBL document CHEMBL5543140 (J Med Chem, 2024).
The source made the active and inactive calls. The rule behind the calls is not given here.

Experiments:
[1] = target: Voltage-dependent L-type calcium channel subunit alpha-1C (Homo sapiens, UniProt Q13936); test: Binding affinity to human Calcium channel L-type (verapamil site) at 10 uM measured after 180 mins by [3H]D888-Radiometric assay relative to control
[2] = target: 5-hydroxytryptamine receptor 2A (Homo sapiens, UniProt P28223); test: Agonist activity at human 5-HT2A receptor expressed in HEK293 cells assessed as maximal IP2 production measured after 30 mins incubation by HTRF assay relative to control; type: functional, cell-based; settings: filed as agonist
Sequence of 5-hydroxytryptamine receptor 2A (P28223 whole entry): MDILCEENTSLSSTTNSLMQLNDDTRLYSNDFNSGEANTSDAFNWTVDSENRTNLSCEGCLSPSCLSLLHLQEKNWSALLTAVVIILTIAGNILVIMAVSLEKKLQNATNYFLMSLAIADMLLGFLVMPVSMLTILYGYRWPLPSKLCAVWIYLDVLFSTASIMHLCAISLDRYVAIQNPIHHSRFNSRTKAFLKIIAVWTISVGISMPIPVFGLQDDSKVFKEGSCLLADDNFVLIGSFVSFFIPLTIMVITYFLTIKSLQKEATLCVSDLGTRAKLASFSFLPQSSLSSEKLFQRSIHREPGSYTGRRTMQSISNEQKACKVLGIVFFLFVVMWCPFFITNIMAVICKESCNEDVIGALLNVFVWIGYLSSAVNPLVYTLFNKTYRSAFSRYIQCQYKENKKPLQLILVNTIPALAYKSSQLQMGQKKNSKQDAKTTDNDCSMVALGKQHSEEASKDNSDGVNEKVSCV

[3] = target: 5-hydroxytryptamine receptor 5A (Homo sapiens) (UniProt P47898); test: Binding affinity to human 5-HT5A receptor (unknown origin) at 10 uM by radioligand displacement assay
Sequence of 5-hydroxytryptamine receptor 5A (Homo sapiens) (P47898 whole entry): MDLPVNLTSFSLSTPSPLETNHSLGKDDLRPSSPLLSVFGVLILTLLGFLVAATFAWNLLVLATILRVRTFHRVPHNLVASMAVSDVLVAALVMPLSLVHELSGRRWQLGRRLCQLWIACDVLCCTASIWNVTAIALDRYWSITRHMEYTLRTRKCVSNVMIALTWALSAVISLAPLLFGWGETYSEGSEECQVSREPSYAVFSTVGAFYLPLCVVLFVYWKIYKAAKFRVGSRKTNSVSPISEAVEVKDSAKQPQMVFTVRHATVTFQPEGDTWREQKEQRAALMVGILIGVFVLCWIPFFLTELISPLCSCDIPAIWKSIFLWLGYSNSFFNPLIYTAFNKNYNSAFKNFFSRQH

[4] = Ex vivo binding in C57BL/6J mouse brain frontal cortex assessed as inhibition of [3H]Cimbi-36 binding at 1 mg/kg, sc measured after 100 mins by liquid scintillation counting analysis (reference value: 0%); type: functional; settings: 1.667 h
Mus musculus [5] = test: Induction of neuroplasticity in C57BL/6J mouse assessed as increase in BDNF mRNA expression in brain frontal cortex at 3 mg/kg, sc single dose by RT-PCR analysis; type: functional, organism-based
[6] = Metabolic stability in human liver S9 fractions assessed as half life; type: ADME, subcellular; settings: liver S9 fraction
[7] = target: T1, 5-hydroxytryptamine receptor 2B (Homo sapiens, UniProt P41595); test: Displacement of [3H]LSD from human 5-HT2B receptor expressed in HEK293 cell membrane incubated for 90 mins by microbeta liquid scintillation counting method; type: cell membranes
T1 sequence (P41595 whole entry): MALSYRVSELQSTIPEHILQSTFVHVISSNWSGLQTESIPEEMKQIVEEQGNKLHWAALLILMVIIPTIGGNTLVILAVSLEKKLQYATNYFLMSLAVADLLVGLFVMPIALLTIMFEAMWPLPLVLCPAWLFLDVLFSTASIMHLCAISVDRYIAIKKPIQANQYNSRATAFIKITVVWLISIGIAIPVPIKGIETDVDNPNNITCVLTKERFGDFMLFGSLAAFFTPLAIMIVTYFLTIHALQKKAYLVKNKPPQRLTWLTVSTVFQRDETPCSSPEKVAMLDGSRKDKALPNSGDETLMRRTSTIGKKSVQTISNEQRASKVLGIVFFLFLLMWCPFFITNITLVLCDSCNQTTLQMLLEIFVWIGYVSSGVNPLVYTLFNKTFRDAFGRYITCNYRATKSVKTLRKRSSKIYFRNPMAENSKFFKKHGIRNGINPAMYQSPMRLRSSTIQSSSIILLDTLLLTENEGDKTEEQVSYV

[8] = CSF to brain ratio in male Sprague-Dawley rat at 1 mg/kg, iv measured upto 8 hrs by LC-MS/MS analysis; type: ADME, organism-based; settings: in vivo
[9] = Clearance in beagle dog at 0.4 mg/kg, iv measured upto 24 hrs; type: ADME, organism-based, Canis lupus familiaris; settings: in vivo
[10] = target: T1, 5-hydroxytryptamine receptor 2B; test: Agonist activity at human 5-HT2B receptor expressed in CHO cells assessed as IP2 production measured after 30 mins incubation by HTRF assay; type: functional, cell-based
[11] = Metabolic stability in monkey liver S9 fractions assessed as half life; type: ADME, subcellular, Macaca fascicularis; settings: cynomolgus monkey, liver S9 fraction
[12] = target: T2, 5-hydroxytryptamine receptor 1A (Homo sapiens) (UniProt P08908); test: Displacement of [3H]-8-OH-DPAT from 5-HT1A receptor (unknown origin) assessed as inhibition binding at 10 uM relative to control
T2 sequence (whole entry): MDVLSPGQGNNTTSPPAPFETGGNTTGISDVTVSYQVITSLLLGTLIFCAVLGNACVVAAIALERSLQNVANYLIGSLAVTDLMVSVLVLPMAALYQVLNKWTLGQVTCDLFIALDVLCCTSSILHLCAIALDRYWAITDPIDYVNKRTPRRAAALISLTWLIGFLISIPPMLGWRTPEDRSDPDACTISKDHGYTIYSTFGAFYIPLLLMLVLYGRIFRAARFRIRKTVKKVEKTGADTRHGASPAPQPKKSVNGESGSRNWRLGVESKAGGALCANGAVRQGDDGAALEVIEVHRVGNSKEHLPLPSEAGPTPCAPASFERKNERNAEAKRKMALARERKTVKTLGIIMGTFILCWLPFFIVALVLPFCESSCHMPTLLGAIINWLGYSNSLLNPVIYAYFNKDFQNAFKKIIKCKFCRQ

[13] = target: 5-hydroxytryptamine receptor 6 (Homo sapiens, UniProt P50406); test: Displacement of [3H]LSD from 5-HT6 receptor (unknown origin) assessed as inhibition binding
Sequence of 5-hydroxytryptamine receptor 6 (P50406 whole entry): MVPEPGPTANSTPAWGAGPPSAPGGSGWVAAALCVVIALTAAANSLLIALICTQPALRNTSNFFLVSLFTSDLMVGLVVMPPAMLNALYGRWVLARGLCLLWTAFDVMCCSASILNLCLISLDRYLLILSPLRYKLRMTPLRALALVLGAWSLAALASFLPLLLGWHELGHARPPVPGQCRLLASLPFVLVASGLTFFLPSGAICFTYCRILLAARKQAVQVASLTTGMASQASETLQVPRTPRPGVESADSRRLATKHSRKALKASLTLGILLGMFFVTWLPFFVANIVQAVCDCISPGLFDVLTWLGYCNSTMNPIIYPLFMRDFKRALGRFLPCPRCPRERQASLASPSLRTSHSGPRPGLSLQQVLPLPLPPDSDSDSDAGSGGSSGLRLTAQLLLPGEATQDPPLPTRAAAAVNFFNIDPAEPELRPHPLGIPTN

Mus musculus [14] = test: Psychedelic effect in C57BL/6J mouse assessed as number of head-twitch responses by visual observation at 3 mg/kg, po measured for 3 mins at 160 to 170 min; type: functional; settings: 0.05 h
Mus musculus [15] = test: Psychedelic effect in C57BL/6J mouse assessed as induction of 5-HT2A receptor dependent head-twitch responses by visual observation at 3 mg/kg, sc in presence of ketanserin 1 mg/kg, sc measured after 24 hrs; type: functional, organism-based
[16] = Ex vivo binding in C57BL/6J mouse brain frontal cortex assessed as inhibition of [3H]Cimbi-36 binding at 1 mg/kg, sc measured after 360 mins by liquid scintillation counting analysis (reference value: 0%); type: functional; settings: 6 h
[17] = Tmax in male Sprague-Dawley rat plasma at 1 mg/kg, iv measured upto 8 hrs by LC-MS/MS analysis; type: ADME, organism-based
[18] = Ex vivo binding in C57BL/6J mouse brain frontal cortex assessed as specific binding [3H]Cimbi-36 at 1 mg/kg, sc measured after 360 mins by liquid scintillation counting analysis (reference value: 1092 +/- 53); type: functional; settings: 6 h
Hippocampus [19] = test: Induction of neuroplasticity in C57BL/6J mouse assessed as increase in Homer 1 mRNA expression in brain hippocampus at 3 mg/kg, sc single dose by RT-PCR analysis; type: functional, organism-based
[20] = Cmax in Wistar rat plasma at 1 mg/kg, iv measured upto 48 hrs; type: ADME, organism-based
[21] = AUClast in beagle dog at 2 mg/kg, po measured upto 24 hrs; type: ADME, organism-based, Canis lupus familiaris; settings: in vivo
[22] = target: Muscarinic acetylcholine receptor M4 (Homo sapiens) (UniProt P08173); test: Displacement of [3H]4-DAMP from human recombinant muscarinic M4 receptor expressed in HEK293 cells at 10 uM incubated for 60 mins by radiometric based scintillation counter assay relative to control; type: cell-based
Sequence of Muscarinic acetylcholine receptor M4 (Homo sapiens) (P08173 whole entry): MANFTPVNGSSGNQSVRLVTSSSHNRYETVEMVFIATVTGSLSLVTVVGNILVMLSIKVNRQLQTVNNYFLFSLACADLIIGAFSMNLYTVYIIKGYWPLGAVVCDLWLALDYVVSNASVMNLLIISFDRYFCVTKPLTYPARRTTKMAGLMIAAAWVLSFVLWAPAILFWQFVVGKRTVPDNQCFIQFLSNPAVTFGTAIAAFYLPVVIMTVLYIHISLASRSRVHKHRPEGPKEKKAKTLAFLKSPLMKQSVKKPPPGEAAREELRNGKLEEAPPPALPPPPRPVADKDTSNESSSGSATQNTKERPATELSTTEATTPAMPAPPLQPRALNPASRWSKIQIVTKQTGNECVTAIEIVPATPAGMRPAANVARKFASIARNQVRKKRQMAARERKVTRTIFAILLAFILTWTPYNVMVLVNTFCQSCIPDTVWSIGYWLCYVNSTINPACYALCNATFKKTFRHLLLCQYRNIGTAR

[23] = MRTlast in Wistar rat plasma at 5 mg/kg, po measured upto 48 hrs; type: ADME, organism-based
[24] = target: 5-hydroxytryptamine receptor 3A (Homo sapiens) (UniProt P46098); test: Binding affinity to human 5-HT3 receptor (unknown origin) at 10 uM by radioligand displacement assay
Sequence of 5-hydroxytryptamine receptor 3A (Homo sapiens) (P46098 whole entry): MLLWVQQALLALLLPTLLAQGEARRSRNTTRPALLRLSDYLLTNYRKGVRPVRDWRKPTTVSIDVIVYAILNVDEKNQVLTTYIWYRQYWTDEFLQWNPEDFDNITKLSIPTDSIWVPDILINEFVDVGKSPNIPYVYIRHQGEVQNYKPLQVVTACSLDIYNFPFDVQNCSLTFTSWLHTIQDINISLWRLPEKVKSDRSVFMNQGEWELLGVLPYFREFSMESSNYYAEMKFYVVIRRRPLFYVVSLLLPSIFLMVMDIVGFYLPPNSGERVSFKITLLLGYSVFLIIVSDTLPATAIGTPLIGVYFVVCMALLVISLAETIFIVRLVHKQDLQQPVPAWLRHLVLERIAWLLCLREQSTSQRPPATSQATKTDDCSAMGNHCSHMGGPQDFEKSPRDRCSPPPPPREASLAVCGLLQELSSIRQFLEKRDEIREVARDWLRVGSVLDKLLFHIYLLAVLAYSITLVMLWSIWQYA

[25] = Cmax in male Sprague-Dawley rat CSF at 1 mg/kg, iv measured upto 8 hrs by LC-MS/MS analysis; type: ADME, organism-based, Cerebrospinal fluid
[26] = Clearance in Wistar rat plasma at 1 mg/kg, iv measured upto 48 hrs; type: ADME, organism-based
Mus musculus [27] = test: Psychedelic effect in C57BL/6J mouse assessed as development of tolerance/ tachyphylaxis at 0.3 mg/kg, sc measured on day 4 by head-twitch responses test; type: functional, organism-based; settings: time 4.0 day
Hippocampus [28] = test: Induction of neuroplasticity in C57BL/6J mouse assessed as increase in Homer1 mRNA expression in brain hippocampus at 0.3 mg/kg, sc single dose by RT-PCR analysis; type: functional, organism-based
[29] = Ex vivo binding in C57BL/6J mouse brain frontal cortex assessed as specific binding [3H]Cimbi-36 at 1 mg/kg, sc measured after 160 mins by liquid scintillation counting analysis (reference value: 1092 +/- 53); type: functional; settings: 2.667 h
[30] = Ex vivo binding in C57BL/6J mouse brain frontal cortex assessed as specific binding [3H]Cimbi-36 at 1 mg/kg, sc measured after 100 mins by liquid scintillation counting analysis (reference value: 1092 +/- 53); type: functional; settings: 1.667 h
[31] = Tmax in Wistar rat brain at 1 mg/kg, iv measured upto 48 hrs; type: ADME, organism-based
[32] = AUClast in Wistar rat plasma at 5 mg/kg, po measured upto 48 hrs; type: ADME, organism-based
[33] = Ex vivo binding in C57BL/6J mouse brain frontal cortex assessed as specific binding [3H]Cimbi-36 at 1 mg/kg, sc measured after 300 mins by liquid scintillation counting analysis (reference value: 1092 +/- 53); type: functional; settings: 5 h

Sequence of Voltage-dependent L-type calcium channel subunit alpha-1C (Q13936 whole entry): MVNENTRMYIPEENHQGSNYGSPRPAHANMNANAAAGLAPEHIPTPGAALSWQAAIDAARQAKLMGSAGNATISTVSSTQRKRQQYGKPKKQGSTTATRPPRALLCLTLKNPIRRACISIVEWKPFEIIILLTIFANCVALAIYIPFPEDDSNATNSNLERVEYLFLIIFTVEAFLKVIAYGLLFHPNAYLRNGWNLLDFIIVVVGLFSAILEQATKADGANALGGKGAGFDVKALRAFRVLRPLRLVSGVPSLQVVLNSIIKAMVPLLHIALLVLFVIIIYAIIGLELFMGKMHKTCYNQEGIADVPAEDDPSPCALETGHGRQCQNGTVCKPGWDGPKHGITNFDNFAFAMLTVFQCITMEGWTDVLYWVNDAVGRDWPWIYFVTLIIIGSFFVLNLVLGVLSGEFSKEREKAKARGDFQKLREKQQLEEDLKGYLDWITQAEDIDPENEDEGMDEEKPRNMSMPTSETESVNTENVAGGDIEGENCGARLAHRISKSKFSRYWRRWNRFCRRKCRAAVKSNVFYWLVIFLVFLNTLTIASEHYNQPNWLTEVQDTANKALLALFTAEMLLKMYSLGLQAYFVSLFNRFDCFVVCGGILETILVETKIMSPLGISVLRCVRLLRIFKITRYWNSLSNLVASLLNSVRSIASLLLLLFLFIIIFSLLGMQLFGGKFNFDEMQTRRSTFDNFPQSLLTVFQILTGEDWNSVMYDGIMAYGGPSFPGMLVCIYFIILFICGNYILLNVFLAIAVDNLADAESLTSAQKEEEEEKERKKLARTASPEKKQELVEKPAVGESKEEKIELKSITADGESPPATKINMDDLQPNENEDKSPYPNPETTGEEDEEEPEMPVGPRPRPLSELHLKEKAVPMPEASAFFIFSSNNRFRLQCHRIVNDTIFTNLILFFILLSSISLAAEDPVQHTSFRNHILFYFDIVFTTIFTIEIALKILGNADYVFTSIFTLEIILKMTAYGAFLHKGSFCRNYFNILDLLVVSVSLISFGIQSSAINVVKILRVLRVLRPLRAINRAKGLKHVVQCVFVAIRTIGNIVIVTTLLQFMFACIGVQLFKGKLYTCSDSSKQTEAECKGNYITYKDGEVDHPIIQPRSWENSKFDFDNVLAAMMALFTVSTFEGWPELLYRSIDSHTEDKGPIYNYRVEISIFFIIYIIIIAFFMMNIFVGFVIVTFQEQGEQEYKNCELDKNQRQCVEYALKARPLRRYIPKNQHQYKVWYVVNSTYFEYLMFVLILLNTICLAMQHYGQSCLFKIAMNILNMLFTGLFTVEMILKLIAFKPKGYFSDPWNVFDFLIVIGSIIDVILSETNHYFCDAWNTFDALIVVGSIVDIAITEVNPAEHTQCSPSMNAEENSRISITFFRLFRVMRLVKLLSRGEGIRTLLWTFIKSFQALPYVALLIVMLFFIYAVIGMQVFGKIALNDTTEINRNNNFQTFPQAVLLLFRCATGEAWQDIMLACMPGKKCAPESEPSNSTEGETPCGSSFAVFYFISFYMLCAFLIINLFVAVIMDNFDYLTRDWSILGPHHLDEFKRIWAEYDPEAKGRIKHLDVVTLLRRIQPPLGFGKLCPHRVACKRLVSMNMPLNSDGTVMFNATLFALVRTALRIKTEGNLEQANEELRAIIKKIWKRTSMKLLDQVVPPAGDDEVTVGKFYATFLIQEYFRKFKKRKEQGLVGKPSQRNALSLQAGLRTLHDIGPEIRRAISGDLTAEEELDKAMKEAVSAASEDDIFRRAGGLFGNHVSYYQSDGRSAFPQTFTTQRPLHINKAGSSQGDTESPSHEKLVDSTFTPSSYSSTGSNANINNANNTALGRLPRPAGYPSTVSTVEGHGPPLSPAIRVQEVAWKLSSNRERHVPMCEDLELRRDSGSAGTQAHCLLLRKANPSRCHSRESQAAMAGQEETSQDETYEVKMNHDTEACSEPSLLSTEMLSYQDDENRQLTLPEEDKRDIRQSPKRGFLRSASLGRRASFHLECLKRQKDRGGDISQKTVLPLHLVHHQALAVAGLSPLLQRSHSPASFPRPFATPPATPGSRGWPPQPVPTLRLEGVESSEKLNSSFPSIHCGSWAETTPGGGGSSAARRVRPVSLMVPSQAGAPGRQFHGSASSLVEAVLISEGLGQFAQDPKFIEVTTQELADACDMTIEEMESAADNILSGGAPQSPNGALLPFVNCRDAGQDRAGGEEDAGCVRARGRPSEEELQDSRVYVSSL

In the case of `COc1cc([Se]C(F)(F)F)c(OC)cc1CCN.Cl`, the Activity [1] is reported as 85%, the Emax [2] is reported as 87% and the Activity [3] is reported as “inactive”. The inhibition in vivo at 1 mg/kg [4] was 25%, the Activity (Mus musculus [5]) was “Active” and the half-life [6] was > 120 min. For the same compound, the Ki [7] was 0.014 µM, the Ratio [8] was 0.016 and the clearance [9] was 15.8 mL/min/kg. The EC50 [10] was 0.088 µM, the half-life [11] was 38 min and the inhibition [12] was 98%. For the same compound, the Ki [13] was 1.3 µM, the Activity (Mus musculus [14]) was 29 and the Activity (Mus musculus [15]) was “inactive”. It also gave an inhibition in vivo at 1 mg/kg [16] of 25%, a Tmax [17] of 4.98 min and an Activity [18] of 820. The Activity (Hippocampus [19]) was “inactive”, the Cmax [20] was 54.1 ng/mL and the AUC(0-t) at 24 h [21] was 2720 ng·h/mL. The inhibition [22] was 86%, the MRT last at 48 h [23] was 135 min and the Activity [24] was “inactive”. The Cmax [25] was 48.7 ng/mL, the clearance [26] was 328 mL/min/kg and the Activity (Mus musculus [27]) was “Active”. For the same compound, the Activity (Hippocampus [28]) was “inactive”, the Activity [29] was 736 and the Activity [30] was 820. It also gave a Tmax [31] of 30 min, an AUC(0-t) at 48 h [32] of 40.3 ng·h/mL and an Activity [33] of 857.
